# Experimental data reported in the supplement of paper PMC10307832.
# Columns and labels:
# Assay in all cases: relative viability (nuclei count vs DMSO), 5 days (fraction); higher = more cells survive
# AGI-6780 + Tozasertib = compound: O=C(Nc1cccc(C(F)(F)F)c1)Nc1cc(S(=O)(=O)NC2CC2)ccc1-c1ccsc1 [AGI-6780] + Cc1cc(Nc2cc(N3CCN(C)CC3)nc(Sc3ccc(NC(=O)C4CC4)cc3)n2)n[nH]1 [Tozasertib] (partner 0.1 µM)
# Method in brief: (§1)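 Values are medians from duplicate plates. Each reflects relative viability, defined as the nuclei count of treated wells over that of vehicle wells. Lung cancer cell lines in 1536-well plates were pin-tool dosed one day after seeding with one drug alone or with a fixed anchor-drug dose plus five library-drug doses (not always all listed) in √10 steps, then fixed, stained and imaged at 4× after 5 days.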
# AGI-6780 + Foretinib = compound: O=C(Nc1cccc(C(F)(F)F)c1)Nc1cc(S(=O)(=O)NC2CC2)ccc1-c1ccsc1 [AGI-6780] + COc1cc2c(Oc3ccc(NC(=O)C4(C(=O)Nc5ccc(F)cc5)CC4)cc3F)ccnc2cc1OCCCN1CCOCC1 [Foretinib] (partner 0.25 µM)
# Method in brief: as §1
# AGI-6780 + Luminespib = compound: O=C(Nc1cccc(C(F)(F)F)c1)Nc1cc(S(=O)(=O)NC2CC2)ccc1-c1ccsc1 [AGI-6780] + CCNC(=O)c1noc(-c2cc(C(C)C)c(O)cc2O)c1-c1ccc(CN2CCOCC2)cc1 [Luminespib] (partner 0.01 µM)
# Method in brief: as §1
# AGI-6780 + AZD7762 = compound: O=C(Nc1cccc(C(F)(F)F)c1)Nc1cc(S(=O)(=O)NC2CC2)ccc1-c1ccsc1 [AGI-6780] + NC(=O)Nc1cc(-c2cccc(F)c2)sc1C(=O)N[C@H]1CCCNC1 [AZD7762] (partner 0.2 µM)
# Method in brief: as §1
Cell Line,relative viability (AGI-6780 + Tozasertib; first compound 0.08 µM),relative viability (AGI-6780 + Tozasertib; first compound 0.253 µM),relative viability (AGI-6780 + Tozasertib; first compound 0.8 µM),relative viability (AGI-6780 + Tozasertib; first compound 2.53 µM),relative viability (AGI-6780 + Tozasertib; first compound 8 µM),relative viability (AGI-6780 + Foretinib; first compound 0.08 µM),relative viability (AGI-6780 + Foretinib; first compound 0.253 µM),relative viability (AGI-6780 + Foretinib; first compound 0.8 µM),relative viability (AGI-6780 + Foretinib; first compound 2.53 µM),relative viability (AGI-6780 + Foretinib; first compound 8 µM),relative viability (AGI-6780 + Luminespib; first compound 0.08 µM),relative viability (AGI-6780 + Luminespib; first compound 0.253 µM),relative viability (AGI-6780 + Luminespib; first compound 0.8 µM),relative viability (AGI-6780 + Luminespib; first compound 2.53 µM),relative viability (AGI-6780 + Luminespib; first compound 8 µM),relative viability (AGI-6780 + AZD7762; first compound 0.08 µM),relative viability (AGI-6780 + AZD7762; first compound 0.253 µM),relative viability (AGI-6780 + AZD7762; first compound 0.8 µM),relative viability (AGI-6780 + AZD7762; first compound 2.53 µM),relative viability (AGI-6780 + AZD7762; first compound 8 µM)
HCC-827,0.226,0.433,0.41,0.405,0.432,1.09,1.09,1.1,0.938,1.03,0.584,0.586,0.707,0.467,0.454,0.223,0.269,0.356,0.236,0.187
HOP-62,0.328,0.366,0.398,0.302,0.408,1.08,1.06,1.14,1.16,1.15,0.963,0.983,0.925,1,0.95,0.659,0.592,0.826,0.846,0.82
IA-LM,,,,,,1.28,1.13,1.21,1.13,1.15,,,,,,,,,,
LC-2-ad,0.433,0.477,0.447,0.327,0.468,0.939,0.849,1.04,0.913,0.901,1,0.915,1.11,1.05,0.921,0.895,0.885,0.921,0.877,0.859
LCLC-97TM1,0.217,0.265,0.291,0.195,0.197,1.09,0.929,0.929,0.864,0.84,0.814,0.703,0.876,0.71,0.714,0.276,0.279,0.445,0.31,0.303
LCLC-103H,0.492,0.475,0.51,0.451,0.562,0.883,0.745,0.702,0.652,0.748,1.07,0.896,0.986,0.971,0.963,0.716,0.812,0.712,0.647,0.792
LK-2,0.178,0.16,0.147,,0.162,1.23,1.15,1.21,,1.53,0.189,0.169,0.183,,0.202,0.374,0.412,0.63,,0.501
NCI-H520,0.486,0.441,0.426,0.327,0.446,0.684,0.942,1.07,0.655,0.77,0.23,0.255,0.234,0.178,0.231,,,,,
NCI-H522,0.485,0.5,0.606,0.534,0.53,,,,,,1.18,1.14,1.1,1.12,1.17,0.821,0.907,0.848,,0.78
NCI-H661,0.367,0.36,0.357,0.345,0.354,1.03,0.986,1.03,0.873,1.05,0.928,0.938,0.951,1.01,0.87,,,,,
NCI-H1299,,,,,,1.09,1.07,1.07,1.05,1.12,,,,,,,,,,
NCI-H1563,,,,,,0.901,0.977,1.02,0.89,0.992,0.585,0.537,0.577,0.492,0.542,,,,,
NCI-H1648,0.45,0.581,0.639,0.401,0.378,,,,,,,,,,,0.676,0.846,0.89,0.769,0.81
NCI-H1650,0.367,0.432,0.442,0.381,0.293,1.07,1.23,1.06,1.24,1.13,0.187,0.203,0.219,0.228,0.191,,,,,
NCI-H1703,,,,,,,0.327,0.333,0.36,0.393,,,,,,0.14,0.139,0.0936,0.112,0.133
NCI-H1792,,,,,,,,,,,0.52,0.354,0.371,0.443,0.366,1.05,0.596,0.769,,0.752
NCI-H2009,0.605,0.725,0.845,0.701,0.683,1.23,1.23,1.19,1.24,1.14,1.01,1.04,0.994,0.988,0.946,,,,,
NCI-H2023,0.329,0.48,0.358,0.212,0.25,0.984,0.823,0.829,0.777,0.825,0.877,0.688,0.602,0.553,0.686,,,,,
NCI-H2228,0.281,0.278,0.228,0.226,0.201,1,0.767,0.598,0.709,0.853,0.128,0.15,0.148,0.114,0.113,,,,,
SK-LU-1,0.309,0.318,,0.279,0.327,0.873,0.859,,0.737,0.831,0.22,0.192,,0.199,0.224,,,,,
SK-MES-1,1.02,0.961,1,0.88,0.747,0.896,1.01,0.773,0.709,0.833,0.716,0.714,0.798,0.677,0.801,,,,,
SW 1573,0.175,0.261,0.254,,0.139,0.881,1.01,0.93,0.836,0.903,0.462,0.398,0.216,0.216,0.287,,,,,
UMC-11,0.197,0.198,0.206,,0.192,1.03,1.03,1.23,,1.19,1.16,1,1.22,,1.11,,,,,
